Among the data in ChEMBL document CHEMBL1129976, “New benzocycloalkylpiperazines, potent and selective 5-HT1A receptor ligands” (J Med Chem, 1997) are inhibition values, retold here.

The target of the first experiment is T1, 5-hydroxytryptamine receptor 1A (Rattus norvegicus) (UniProt P19327).
T1 sequence (whole entry): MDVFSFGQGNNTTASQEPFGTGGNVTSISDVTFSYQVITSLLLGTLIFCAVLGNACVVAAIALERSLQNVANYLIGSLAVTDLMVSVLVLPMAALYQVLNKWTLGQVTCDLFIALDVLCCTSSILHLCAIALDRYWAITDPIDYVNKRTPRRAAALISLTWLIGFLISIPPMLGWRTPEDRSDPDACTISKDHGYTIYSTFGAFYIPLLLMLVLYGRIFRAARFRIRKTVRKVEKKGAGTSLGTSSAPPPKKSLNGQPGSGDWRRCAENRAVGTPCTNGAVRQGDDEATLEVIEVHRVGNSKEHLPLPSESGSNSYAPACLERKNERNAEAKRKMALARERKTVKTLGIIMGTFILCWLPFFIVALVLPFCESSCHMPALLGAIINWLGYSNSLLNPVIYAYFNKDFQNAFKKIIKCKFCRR
The experiment is described as follows: Inhibition of [3H]8-OH-DPAT binding to 5-hydroxytryptamine 1A receptor in rat hippocampal membranes at 10e-7 M. To be noted: Hippocampus, Membrane. The class given is cell membranes.
In turn, `O=C(NCCN1CCN(C2CCCc3ccccc32)CC1)c1ccc(F)cc1` (stereo in doubt; 33) returned an inhibition of 88%.

`COc1ccc(C(=O)NCCN2CCN(C3CCc4ccccc43)CC2)cc1` (stereo not drawn) registered an inhibition of 45%.

`O=C(NCCN1CCN(C2CCCCc3ccccc32)CC1)c1ccc(F)cc1` (stereo not drawn): the inhibition came out at 22%.

`O=C(NCCN1CCN(C2CCCCc3ccccc32)CC1)c1ccccc1` (stereo not drawn) showed an inhibition of 51%.

`COc1ccc(C(=O)NCCN2CCN(C3CCCc4ccccc43)CC2)cc1` (stereo not drawn): the inhibition worked out at 63%.

`O=C(NCCCN1CCN(C2CCCc3ccccc32)CC1)c1ccc(F)cc1` (stereo not drawn) gave an inhibition of 68%.

`COc1ccc(C(=O)NCCN2CCN(C3CCCCc4ccccc43)CC2)cc1` (stereo not drawn) registered an inhibition of 11%.

For `O=C(NCCCN1CCN(C2CCCc3ccccc32)CC1)c1ccccc1` (stereo not drawn), the inhibition was 39%.

`O=C(NCCN1CCN(C2CCCc3ccccc32)CC1)c1ccccc1` (stereo in doubt; 32) registered an inhibition of 93%.

Turning to `O=C(NCCN1CCN(C2CCCc3ccccc32)CC1)c1ccc(Cl)cc1` (stereo in doubt; 34), the inhibition amounted to 86%.

`Cc1ccc(C(=O)NCCN2CCN(C3CCCc4ccccc43)CC2)cc1` (stereo not drawn) showed an inhibition of 42%.

On to `O=C(NCCN1CCN(C2CCc3ccccc32)CC1)c1ccc(F)cc1` (stereo not drawn), for which the inhibition was 69%.

For another experiment, the species on record is Bos taurus. The experiment is described as follows: Inhibition of [3H]ketanserin binding to 5-hydroxytryptamine 2 receptor of bovine frontal cortex at 10e-7 M. The class given is tissue-based.
Details: not given
`O=C(NCCN1CCN(C2CCCc3ccccc32)CC1)c1ccc(F)cc1` (stereo in doubt; 33) showed an inhibition of 17%.

On to `COc1ccc(C(=O)NCCN2CCN(C3CCc4ccccc43)CC2)cc1` (stereo not drawn), for which the inhibition stood at 17%.

Molecule `O=C(NCCN1CCN(C2CCCCc3ccccc32)CC1)c1ccc(F)cc1` (stereo not drawn) yielded an inhibition of 23%.

`O=C(NCCN1CCN(C2CCCCc3ccccc32)CC1)c1ccccc1` (stereo not drawn) returned an inhibition of 37%.

`COc1ccc(C(=O)NCCN2CCN(C3CCCc4ccccc43)CC2)cc1` (stereo not drawn): the inhibition was 28%.

In turn, `O=C(NCCCN1CCN(C2CCCc3ccccc32)CC1)c1ccc(F)cc1` (stereo not drawn) came in with an inhibition of 19%.

Molecule `COc1ccc(C(=O)NCCN2CCN(C3CCCCc4ccccc43)CC2)cc1` (stereo not drawn) showed an inhibition of 10%.

Turning to `O=C(NCCCN1CCN(C2CCCc3ccccc32)CC1)c1ccccc1` (stereo not drawn), the inhibition turned out to be 17%.

`O=C(NCCN1CCN(C2CCCc3ccccc32)CC1)c1ccccc1` (stereo in doubt; 32) gave an inhibition of 0%.

Consider `O=C(NCCN1CCN(C2CCCc3ccccc32)CC1)c1ccc(Cl)cc1` (stereo in doubt; 34), for which the inhibition was found to be 6%.

`Cc1ccc(C(=O)NCCN2CCN(C3CCCc4ccccc43)CC2)cc1` (stereo not drawn) came in with an inhibition of 6%.

Take `O=C(NCCN1CCN(C2CCc3ccccc32)CC1)c1ccc(F)cc1` (stereo not drawn): the inhibition was 0%.

For the next experiment, the species on record is Bos taurus. Description: Inhibition of [3H]prazosin binding to Alpha-1 adrenergic receptor of calf frontal cortex at 10e-7 M. The class given is tissue-based.
Details: not given
As to `O=C(NCCN1CCN(C2CCCc3ccccc32)CC1)c1ccc(F)cc1` (stereo in doubt; 33), the inhibition is 22%.

Turning to `COc1ccc(C(=O)NCCN2CCN(C3CCc4ccccc43)CC2)cc1` (stereo not drawn), the inhibition turned out to be 6%.

With `O=C(NCCN1CCN(C2CCCCc3ccccc32)CC1)c1ccc(F)cc1` (stereo not drawn), the inhibition was 0%.

Regarding `O=C(NCCN1CCN(C2CCCCc3ccccc32)CC1)c1ccccc1` (stereo not drawn), the inhibition amounted to 0%.

On to `COc1ccc(C(=O)NCCN2CCN(C3CCCc4ccccc43)CC2)cc1` (stereo not drawn), for which the inhibition is 0%.

Molecule `O=C(NCCCN1CCN(C2CCCc3ccccc32)CC1)c1ccc(F)cc1` (stereo not drawn) displayed an inhibition of 6%.

`COc1ccc(C(=O)NCCN2CCN(C3CCCCc4ccccc43)CC2)cc1` (stereo not drawn) displayed an inhibition of 0%.

`O=C(NCCCN1CCN(C2CCCc3ccccc32)CC1)c1ccccc1` (stereo not drawn) gave an inhibition of 11%.

In turn, `O=C(NCCN1CCN(C2CCCc3ccccc32)CC1)c1ccccc1` (stereo in doubt; 32) had an inhibition of 4%.

Take `O=C(NCCN1CCN(C2CCCc3ccccc32)CC1)c1ccc(Cl)cc1` (stereo in doubt; 34): the inhibition is 23%.

For the molecule `Cc1ccc(C(=O)NCCN2CCN(C3CCCc4ccccc43)CC2)cc1` (stereo not drawn), the inhibition came out at 0%.

Consider `O=C(NCCN1CCN(C2CCc3ccccc32)CC1)c1ccc(F)cc1` (stereo not drawn), for which the inhibition was determined as 36%.

In the next experiment the target is D(2) dopamine receptor (Bos taurus) (UniProt P20288). The experiment is described as follows: Inhibition of [3H]YM-09151-2 binding to Dopamine receptor D2 of bovine striatal preparations at 10e-7 M.
Sequence of D(2) dopamine receptor (Bos taurus) (P20288 whole entry): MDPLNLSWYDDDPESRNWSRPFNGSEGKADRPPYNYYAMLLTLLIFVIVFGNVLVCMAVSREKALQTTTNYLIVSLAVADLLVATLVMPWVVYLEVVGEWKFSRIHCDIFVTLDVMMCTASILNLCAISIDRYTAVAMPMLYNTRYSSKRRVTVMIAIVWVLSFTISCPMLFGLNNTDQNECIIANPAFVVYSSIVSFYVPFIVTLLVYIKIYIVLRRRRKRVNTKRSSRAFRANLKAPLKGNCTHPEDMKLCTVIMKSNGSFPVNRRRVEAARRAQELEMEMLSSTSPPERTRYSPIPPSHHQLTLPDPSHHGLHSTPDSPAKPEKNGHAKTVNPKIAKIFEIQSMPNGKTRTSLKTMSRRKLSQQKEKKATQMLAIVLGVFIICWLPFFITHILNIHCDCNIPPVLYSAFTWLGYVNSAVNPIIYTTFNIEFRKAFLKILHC
Details: not given
`O=C(NCCN1CCN(C2CCCc3ccccc32)CC1)c1ccc(F)cc1` (stereo in doubt; 33) displayed an inhibition of 3%.

Molecule `COc1ccc(C(=O)NCCN2CCN(C3CCc4ccccc43)CC2)cc1` (stereo not drawn) displayed an inhibition of 11%.

As for `O=C(NCCN1CCN(C2CCCCc3ccccc32)CC1)c1ccc(F)cc1` (stereo not drawn), the inhibition came out at 31%.

`O=C(NCCN1CCN(C2CCCCc3ccccc32)CC1)c1ccccc1` (stereo not drawn): the inhibition was 7%.

In turn, `COc1ccc(C(=O)NCCN2CCN(C3CCCc4ccccc43)CC2)cc1` (stereo not drawn) displayed an inhibition of 7%.

In turn, `O=C(NCCCN1CCN(C2CCCc3ccccc32)CC1)c1ccc(F)cc1` (stereo not drawn) displayed an inhibition of 0%.

The molecule `COc1ccc(C(=O)NCCN2CCN(C3CCCCc4ccccc43)CC2)cc1` (stereo not drawn) came in with an inhibition of 60%.

For `O=C(NCCCN1CCN(C2CCCc3ccccc32)CC1)c1ccccc1` (stereo not drawn), the inhibition was 2%.

`O=C(NCCN1CCN(C2CCCc3ccccc32)CC1)c1ccccc1` (stereo in doubt; 32) showed an inhibition of 4%.

With `O=C(NCCN1CCN(C2CCCc3ccccc32)CC1)c1ccc(Cl)cc1` (stereo in doubt; 34), the inhibition amounted to 29%.

Take `Cc1ccc(C(=O)NCCN2CCN(C3CCCc4ccccc43)CC2)cc1` (stereo not drawn): the inhibition turned out to be 5%.

On to `O=C(NCCN1CCN(C2CCc3ccccc32)CC1)c1ccc(F)cc1` (stereo not drawn), for which the inhibition came out at 0%.
